The results in this text go back to ChEMBL document CHEMBL5532720, “A Potent Solution for Tumor Growth and Angiogenesis Suppression via an ELR+CXCL-CXCR1/2 Pathway Inhibitor” (ACS Med Chem Lett, 2024).

Data set [1] addresses Calcium/calmodulin-dependent protein kinase type II subunit beta (Homo sapiens) (UniProt Q13554). The experiment in a line: Inhibition of CAMK2B (unknown origin) at 10 uM in presence of ATP at Km concentration.
Data set [2] in a line: AUC (0 to infinity) in NOD SCID mouse at 100 mg/kg, po. It is filed as ADME, organism-based. Particulars: in vivo.
Data set [3] addresses Mitogen-activated protein kinase kinase kinase kinase 2 (Homo sapiens) (UniProt Q12851). As to the kind of experiment: Inhibition of MAP4K2 (unknown origin) at 10 uM in presence of ATP at Km concentration.
A short description of data set [4]: Stability in mouse hepatocytes assessed as intrinsic clearance measured per 10^6 cells. It is filed as ADME, cell-based, Hepatocyte. Particulars: read-out: CLH.
Data set [5] has as its system CAL-27. The experiment in a line: Antiproliferative activity against human CAL-27 cells incubated for 48 hrs by XTT assay. It counts as functional, cell-based. The conditions noted are these: CAL-27, 48 h.
Data set [6] can be described thus: Stability in mouse microsomes assessed as intrinsic clearance. It is filed as ADME, Microsome.
The target of data set [7] is Ribosomal protein S6 kinase alpha-2 (Homo sapiens) (UniProt Q15349). The experiment in a line: Inhibition of RPS6KA2 (unknown origin) at 10 uM in presence of ATP at Km concentration.
Data set [8] in a line: Stability in mouse plasma assessed as compound remaining measured after 120 mins. It counts as ADME, cell-free. Particulars: read-out: Stability.
Data set [9] can be described thus: Stability in human microsomes assessed as half-life. It counts as ADME, Microsome.
The target of data set [10] is Phosphatidylinositol 4-phosphate 3-kinase C2 domain-containing subunit alpha (Homo sapiens) (UniProt O00443). As to the kind of experiment: Inhibition of PIK3C2A (unknown origin) at 10 uM in presence of ATP at Km concentration.
For data set [11], the target named is CDK8/Cyclin C (Homo sapiens) (UniProt P49336+P24863). The experiment in a line: Inhibition of CDK8/cyclin C (unknown origin) at 10 uM in presence of ATP at Km concentration. It counts as protein-complex assay.
Data set [12] is described as follows: Clearance in NOD SCID mouse at 1 mg/kg, iv. The conditions noted are these: in vivo. It counts as ADME, organism-based.

Active and inactive are the calls of the source. No cut-off for these calls is given here.

Chain of Calcium/calmodulin-dependent protein kinase type II subunit beta (Homo sapiens) (Q13554 whole entry): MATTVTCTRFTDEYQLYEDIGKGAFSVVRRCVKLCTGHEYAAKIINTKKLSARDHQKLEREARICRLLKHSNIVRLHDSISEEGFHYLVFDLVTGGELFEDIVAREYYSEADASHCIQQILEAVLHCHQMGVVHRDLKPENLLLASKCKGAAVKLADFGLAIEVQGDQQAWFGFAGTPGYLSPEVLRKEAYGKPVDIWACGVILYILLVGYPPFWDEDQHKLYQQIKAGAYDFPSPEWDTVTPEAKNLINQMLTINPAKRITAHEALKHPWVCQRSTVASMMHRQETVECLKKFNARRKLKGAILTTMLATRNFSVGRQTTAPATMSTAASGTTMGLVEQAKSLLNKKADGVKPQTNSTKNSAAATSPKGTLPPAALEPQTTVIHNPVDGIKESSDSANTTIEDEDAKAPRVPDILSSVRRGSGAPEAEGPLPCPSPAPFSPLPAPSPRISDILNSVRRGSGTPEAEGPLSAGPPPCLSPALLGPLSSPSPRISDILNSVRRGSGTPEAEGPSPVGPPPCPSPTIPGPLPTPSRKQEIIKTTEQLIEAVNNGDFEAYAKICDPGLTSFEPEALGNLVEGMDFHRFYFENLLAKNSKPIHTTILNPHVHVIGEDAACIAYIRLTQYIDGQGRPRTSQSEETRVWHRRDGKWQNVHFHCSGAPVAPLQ
Chain of Ribosomal protein S6 kinase alpha-2 (Homo sapiens) (Q15349 whole entry): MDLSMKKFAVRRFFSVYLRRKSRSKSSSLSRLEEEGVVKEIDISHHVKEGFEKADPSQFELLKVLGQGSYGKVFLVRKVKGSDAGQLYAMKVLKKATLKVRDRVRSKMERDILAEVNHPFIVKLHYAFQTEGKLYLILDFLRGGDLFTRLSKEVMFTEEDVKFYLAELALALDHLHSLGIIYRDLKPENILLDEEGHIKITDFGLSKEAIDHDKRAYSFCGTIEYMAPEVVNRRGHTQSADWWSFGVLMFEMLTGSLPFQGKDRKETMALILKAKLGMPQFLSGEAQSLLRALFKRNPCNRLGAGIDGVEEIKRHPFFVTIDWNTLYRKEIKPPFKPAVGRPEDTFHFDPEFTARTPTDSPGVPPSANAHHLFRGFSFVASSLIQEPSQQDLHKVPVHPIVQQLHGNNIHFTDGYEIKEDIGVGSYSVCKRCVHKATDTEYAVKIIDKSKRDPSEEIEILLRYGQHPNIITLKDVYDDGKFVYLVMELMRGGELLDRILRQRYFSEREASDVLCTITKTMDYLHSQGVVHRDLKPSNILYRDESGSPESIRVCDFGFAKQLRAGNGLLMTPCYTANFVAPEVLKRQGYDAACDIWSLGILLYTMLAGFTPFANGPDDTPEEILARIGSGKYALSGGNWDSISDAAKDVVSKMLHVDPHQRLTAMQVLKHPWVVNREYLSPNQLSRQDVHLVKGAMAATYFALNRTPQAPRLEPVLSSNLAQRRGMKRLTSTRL
Chain of Mitogen-activated protein kinase kinase kinase kinase 2 (Homo sapiens) (Q12851 whole entry): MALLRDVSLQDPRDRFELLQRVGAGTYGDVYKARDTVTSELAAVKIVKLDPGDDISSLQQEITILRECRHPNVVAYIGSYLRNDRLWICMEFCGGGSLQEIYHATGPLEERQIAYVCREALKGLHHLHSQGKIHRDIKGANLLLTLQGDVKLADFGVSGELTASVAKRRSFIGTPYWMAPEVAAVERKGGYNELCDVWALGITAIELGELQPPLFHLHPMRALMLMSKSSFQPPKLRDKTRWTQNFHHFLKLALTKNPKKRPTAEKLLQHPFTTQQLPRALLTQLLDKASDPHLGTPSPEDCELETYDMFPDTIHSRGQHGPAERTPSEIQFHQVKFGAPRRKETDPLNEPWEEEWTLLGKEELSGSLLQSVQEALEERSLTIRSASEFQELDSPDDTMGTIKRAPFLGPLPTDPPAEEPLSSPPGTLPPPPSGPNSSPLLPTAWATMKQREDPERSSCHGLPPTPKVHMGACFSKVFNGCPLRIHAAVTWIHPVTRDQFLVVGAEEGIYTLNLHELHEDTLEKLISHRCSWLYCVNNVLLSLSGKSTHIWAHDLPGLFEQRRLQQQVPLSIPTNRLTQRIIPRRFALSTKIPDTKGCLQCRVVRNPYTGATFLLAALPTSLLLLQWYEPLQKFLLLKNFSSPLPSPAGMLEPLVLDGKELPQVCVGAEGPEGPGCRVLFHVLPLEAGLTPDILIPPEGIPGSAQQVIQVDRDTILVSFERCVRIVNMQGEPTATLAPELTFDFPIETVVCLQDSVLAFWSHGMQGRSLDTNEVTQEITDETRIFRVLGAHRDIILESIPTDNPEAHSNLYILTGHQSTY
Chain of Phosphatidylinositol 4-phosphate 3-kinase C2 domain-containing subunit alpha (Homo sapiens) (O00443 whole entry, the tested form may be a part): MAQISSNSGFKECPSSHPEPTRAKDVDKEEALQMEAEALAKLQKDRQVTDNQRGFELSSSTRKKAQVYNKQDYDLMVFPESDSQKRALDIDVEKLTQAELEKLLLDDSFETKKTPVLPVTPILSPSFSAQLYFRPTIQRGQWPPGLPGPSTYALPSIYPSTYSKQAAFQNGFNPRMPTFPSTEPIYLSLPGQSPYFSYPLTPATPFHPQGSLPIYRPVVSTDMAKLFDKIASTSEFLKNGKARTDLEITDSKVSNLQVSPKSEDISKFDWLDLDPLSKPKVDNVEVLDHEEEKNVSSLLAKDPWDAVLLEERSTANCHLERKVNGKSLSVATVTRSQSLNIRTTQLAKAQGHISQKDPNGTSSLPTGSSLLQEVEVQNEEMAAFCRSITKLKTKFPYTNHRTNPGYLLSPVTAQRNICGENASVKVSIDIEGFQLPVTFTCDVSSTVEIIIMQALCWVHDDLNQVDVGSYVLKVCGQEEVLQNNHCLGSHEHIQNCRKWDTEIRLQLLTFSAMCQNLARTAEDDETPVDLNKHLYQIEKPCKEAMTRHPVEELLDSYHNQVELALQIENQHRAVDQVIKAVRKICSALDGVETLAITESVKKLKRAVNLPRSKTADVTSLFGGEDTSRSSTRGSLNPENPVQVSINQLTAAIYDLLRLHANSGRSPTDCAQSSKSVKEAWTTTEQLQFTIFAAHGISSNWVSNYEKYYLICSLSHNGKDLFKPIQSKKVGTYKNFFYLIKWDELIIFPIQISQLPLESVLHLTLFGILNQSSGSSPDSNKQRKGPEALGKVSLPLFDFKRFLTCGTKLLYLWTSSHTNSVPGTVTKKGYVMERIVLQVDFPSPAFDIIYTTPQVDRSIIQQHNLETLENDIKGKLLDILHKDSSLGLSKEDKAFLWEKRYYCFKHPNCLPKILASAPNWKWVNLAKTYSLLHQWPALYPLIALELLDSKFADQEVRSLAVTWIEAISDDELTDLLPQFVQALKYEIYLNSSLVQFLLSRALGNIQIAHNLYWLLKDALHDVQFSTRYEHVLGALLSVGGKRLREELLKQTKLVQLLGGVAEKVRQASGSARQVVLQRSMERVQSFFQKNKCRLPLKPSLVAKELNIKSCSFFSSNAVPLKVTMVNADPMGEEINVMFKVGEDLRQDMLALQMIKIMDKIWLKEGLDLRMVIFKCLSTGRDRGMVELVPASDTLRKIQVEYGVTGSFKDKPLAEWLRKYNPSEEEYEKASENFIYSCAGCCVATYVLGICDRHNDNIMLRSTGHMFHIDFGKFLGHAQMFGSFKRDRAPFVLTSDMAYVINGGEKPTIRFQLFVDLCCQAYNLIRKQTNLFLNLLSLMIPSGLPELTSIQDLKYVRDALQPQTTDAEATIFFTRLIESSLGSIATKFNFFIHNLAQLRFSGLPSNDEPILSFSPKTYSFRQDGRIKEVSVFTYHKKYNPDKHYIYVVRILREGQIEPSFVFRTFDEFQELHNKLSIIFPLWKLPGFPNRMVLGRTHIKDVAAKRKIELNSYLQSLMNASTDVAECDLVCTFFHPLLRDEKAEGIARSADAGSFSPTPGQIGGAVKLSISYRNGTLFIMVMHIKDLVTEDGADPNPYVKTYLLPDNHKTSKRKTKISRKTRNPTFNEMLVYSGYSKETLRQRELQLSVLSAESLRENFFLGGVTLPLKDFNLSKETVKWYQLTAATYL

For `O=C(Nc1cc(Cl)cc(Cl)c1)Nc1nc2ccc([N+](=O)[O-])cc2s1`, the inhibition result in data set [1], in [3], in [7], in [10] and in data set [11] was “inactive” in each case. The compound also returned an AUC(0-inf) in [2] of 14200 ng·h/mL. Moreover, the hepatocyte CLint in data set [4] was 65.8 µL/min/1e6 cells. Half-maximal inhibition in [5] (IC50) required 2500 nM. In [6], the microsomal CLint was under 116 µL/min/mg. In [8], the remaining at 2 h was 101%. Moreover, the half-life in data set [9] is over 1 h. The compound further had a clearance in data set [12] of 39.3 mL/min/kg.
